From patent US9597347B2, “Compositions for treating obesity and insulin resistance disorders” (President and Fellows of Harvard College, priority 2003, dated 2017)

Experiments:
[1] = tested on: Wild-type N2 C. elegans worms; experiment: Nile Red staining of fat accumulation in wild-type N2 C. elegans; format: in vivo; details: 100 μM; for fat mobilization (fat content of the worms): L1 worms, vehicle DMSO
[2] = tested on: phosphorylation of AMPK on threonine 172 and of ACC on serine 79; experiment: Western analysis of AMPK and ACC phosphorylation in CHO-HIR cells; format: cell-based; details: resveratrol 12.5, 25 or 50 μM; AICAR 500 μM (positive control); 30 minutes; serum-free overnight
Experimental: CHO-HIR mammalian cells were washed in PBS and incubated overnight in serum-free DMEM before treatment with 500 μM AICAR (positive control) or 12.5 μM, 25 μM or 50 μM resveratrol. Cells were harvested after 30 minutes and lysates were immediately boiled in SDS and subjected to Western analysis with site-specific antibodies. Phosphorylation of AMPK at Thr172 indicates activation of the kinase. Active AMPK phosphorylates and inactivates ACC at serine 79.
CHO cells were also treated with 500 μM AICAR (positive control), DMSO, 100 nM, 500 nM, 2.5 μM, 12.5 μM, 25 μM, or 50 μM resveratrol and subject to Western Blot analysis as described above. Western blots were stripped and re-probed for phosphorylated (active) AMPK, total AMPK, phosphorylated acetyl CoA carboxylase (ACC), which is the downstream target of AMPK, and tubulin, which served as a loading control.

HepG2 cells = experiment: Oxidation of 14C-palmitate in HepG2 cells; format: cell-based; details: resveratrol 10 μM in 1% DMSO, AICAR 500 μM in H2O, metformin 1 mM in H2O; 4 hours; vehicle = 1
Experimental: (§1) Oxidation of 14C-palmitate to acid-soluble products (modified from H4IIEC3 cells [Witters, L. A. and B. E. Kemp, Insulin activation of acetyl-CoA carboxylase accompanied by inhibition of the 5′-AMP-activated protein kinase. J Biol Chem, 1992. 267(5): p. 2864-7] and HepG2 cells were maintained as described above. Cells (10^6 cells/T25) were seeded in a T25 flask one day prior to the experiment. On the day of the experiment cells were washed with assay buffer (114 mM NaCl, 4.7 mM KCL, 1.2 mM KH2PO4, 1.2 mM MgSO4, 11 mM glucose) before labeling with 14C-palmitate (0.4 μCi/ml) in presence of vehicle, or resveratrol (10 μM), or AICAR (500 μM) for 4 hours.
(§2) At the end of incubation, the cap of each T25 flask was replaced with a stopper and a 1′×1.5″ Whatman filter paper soaked with 250 μl 2N NaOH. Each flask was injected with 2 ml of 6N HCL, placed in a horizontal position for 10 minutes and left standing overnight. The next morning, 1 ml H2O and 61 μl NaOH were added to a glass scintillation vial and the filter papers from each T25 flask were transferred to their respective vial. 10 ml Aquasol was added to each vial and allowed to stand for 2 hours, after which the vials were vortexed to dissolve the […] and counted in the scintillation counter. The results were expressed as nmols/h/106 cells and shown as the fold effect. ^14CO2 production ranged from 0.3 to 1.8 nmols/h/106 cells. The experiment was repeated three times.

C. elegans worms = experiment: Nile Red fat staining in C. elegans fed RNAi bacteria; format: in vivo; details: RNA inactivation of TOC1.8 (AMPK homolog) or F41E7.3 (COT homolog)
Experimental: The role of Sir2.1 in fat metabolism was shown in C. elegans worms in which Sir2.1 was RNA inactivated. Young adult worms were grown to adulthood in the presence of bacteria that carry RNAi vector alone or vector encoding Sir2.1 RNAi (R11A8.4), as described below. These worms were grown in the presence or absence of resveratrol, and stained with Nile-Red as described below.
We have examined the C. elegans database and found two gene products that are highly related to mammalian AMPK, TOC1.8 and Par2.3; five genes encoding homologs of CPT-1 and one gene encoding a homolog of COT. C. elegans worms were incubated with bacteria carrying RNAi vector alone, or interfering RNA against TOC1.8 or F41E7.3, a C. elegans homologue of COT in the presence or absence of AICAR. Fat accumulation was visualized with Nile-Red, as described below. […] Thus, AICAR/AMPK signaling to fatty acid oxidation is conserved in worms and mammalian cells.
The effect of TOC1.8 and COT inactivation was then investigated in C. elegans incubated with resveratrol. C. elegans worms were incubated with bacteria carrying RNAi vector alone, or a vector encoding TOC1.8 or COT interfering RNA in the presence or absence of resveratrol. Fat accumulation was visualized with Nile-Red, as described below.
RNAi plates were seeded with HTT5 E. coli carrying either the L4440 RNAi vector control or the specific RNAi clones T01C8.1, AMPK; R11A8.4, sir-2.1; or F41E7.6 COT in the presence or absence of 100 μM resveratrol. Young adults were transferred to plates containing the appropriate vector, Nile Red stain and drug then maintained at 25° C. Nile Red staining was assessed 24 hours after resveratrol treatment by UV microscopy.
HT115 E. Coli carrying the RNAi vector, L4440, were used for maintenance feeding. Bacteria containing experimental RNAi clones were cultured in 10 ml Luria Broth media containing 50 μg/ml ampicillin for 18 hours. 350 μl of each culture was spotted to a 60 mm dish containing NGM agar, 6 mM IPTG and 25 μg/ml carbenicillin. After overnight incubation (at room temp), Nile Red was added on top of each dish to a final concentration of 0.05 μg/ml along with the experimental compounds indicated in the figure legends. Nile Red staining was assessed after 24 hrs by UV microscopy. For each batch of RNAi clones tested, L4440 (vector alone) was included. […] All phenotypes were confirmed by at least three additional rounds of testing.

H4IIEC3 cells = experiment: Oxidation of 14C-palmitate in H4IIEC3 cells; format: cell-based; details: resveratrol 10 μM in 1% DMSO, AICAR 500 μM in H2O, metformin 1 mM in H2O; 4 hours; vehicle = 1
Experimental: as §1, §2

[3] = tested on: Wild-type N2 C. elegans worms; experiment: Nile Red staining of fat accumulation in wild-type N2 C. elegans; format: in vivo; details: 0, 1 or 10 mM, overnight
Experimental: Wild-type N2 C. elegans worms were grown on OP50 bacteria and exposed overnight to vehicle (0.1% ethanol) alone or with 10, 50 or 100 μM of resveratrol (in ethanol). Fat accumulation was visualized with Nile Red staining, as described further below and in Ashrafi K, et al. Nature 421:268-27 (2003).
Synchronized starved L1 worms were grown in the presence of Nile Red. Strains were grown on NGM plates at 25° C. for approximately 48 hours until the young adult stage was reached. 20-30 young adult worms were then washed 2× with M9 buffer and transferred to new NGM/Nile red experimental plates that contained either OP50 or HTT5 E. coli carrying the L4440 RNAi control vector. For experiments comparing the effect of nicotinamide and resveratrol on fat mobilization, OP50 plates were coated with vehicle alone or Nicotinamide (in PBS), or vehicle alone and Resveratrol (in Ethanol or DMSO).
Resveratrol (Indofine #024964) was dissolved in Ethanol or DMSO to a 10 mM stock solution. Resveratrol was added to 60 mm NGM agar dishes containing either OP50 or RNAi expressing bacteria (HT115) to a final concentration of 10 μm, 50 μm, and 100 μM. Nile Red was also added to plates to a final concentration of 0.05 μg/ml. Nicotinamide (Supelco #47865-U) was diluted in PBS including Nile Red and added to […] dishes containing OP50 to a final concentration of 1 mM, 10 mM, or 100 mM.
Nile Red: Nile Red Powder (Sigma #N-3013) was dissolved in acetone at 500 μg/ml, diluted in 1× Phosphate Buffered Saline (PBS) including appropriate drug and applied to surface of Nematode Growth Media (NGM) plates previously seeded with OP50 or RNAi bacteria, at a final concentration of 0.05 μg/ml. Fat content was monitored and recorded by fluorescence microscopy.
Nile Red Staining was visualized by using a Nikon TE2000S microscope equipped with a CY3 filter (emission 535-685 nm). Images were captured using a SPOT RT monochrome digital camera attached to the Nikon Microscope with SPOT RT software v3.5. All Nile red images were acquired using identical settings and exposure times and then changed to red palette.

[4] = tested on: TNF-alpha treated adipocytes; experiment: Radioactive glucose uptake in TNF-alpha treated, insulin resistant adipocytes; format: cell-based; details: resveratrol 5 μM or 15 μM; roziglitazone 4 μM (positive control); with TNF-alpha
Experimental: Adipocytes were treated with TNF-alpha to induce insulin resistance as described in Kabayama et al., Glycobiology 15:21-29 (2005) and Wu et al., Mol. Cell 3:151-8 (1999).

How did the fat staining ([1]; 24 hours, control 1% v/v DMSO) turn out when `CSc1ccc(/C=C/c2cc(O)cc(O)c2)cc1` [3,5-dihydroxy-4′-thiomethyl-trans-stilbene] was run?
Its fat staining is “Significant reduction of fat staining”.

With `NC(=O)c1ncn([C@@H]2O[C@H](CO)[C@@H](O)[C@H]2O)c1N` [AICAR, 5-aminoimidazole-4-carboxamide-1-beta-D-ribofuranoside, reference compound] as the compound, how does the “phosphorylation of AMPK (threonine 172) and ACC (serine 79)” value [2] read?
The value was “stimulates phosphorylation of AMPK and ACC”.

And the “14C-CO2 production (Fold Effect)” value (HepG2 cells)?
Its value is 5 Fold Effect.

What about the fat mobilization (C. elegans worms) of the same compound?
The fat mobilization was “inhibits AICAR-stimulated fat mobilization”.

What about the “14C-CO2 production (Fold Effect)” value (H4IIEC3 cells) of the same compound?
Its value is 2.3 Fold Effect.

What does the source list for `CN(C)C(=N)N=C(N)N` [Metformin]?
14C-CO2 production (Fold Effect) (HepG2 cells): 3.5 Fold Effect; 14C-CO2 production (Fold Effect) (H4IIEC3 cells): 2 Fold Effect

How did the “fat mobilization (fat content of the worms)” value ([1]; 48 hours) turn out when `O=C(/C=C/c1ccc(O)c(O)c1)c1ccc(O)cc1O` [butein, 3,4,2′,4′-Tetrahydroxychalcone] was run?
The value was “stimulate fat mobilization”.

How did the fat staining ([1]; L1 animals, 48 hours, control 2.5% v/v DMSO) turn out when `C(=C/c1ccccc1)/c1ccccc1` [cis-stilbene, cis-Stilbene] was run?
The fat staining was “No significant effect on worm fat staining”.

How did the “fat mobilization (fat content of the worms)” value ([1]; 48 hours) turn out when `O=c1c(O)c(-c2ccc(O)c(O)c2)oc2cc(O)ccc12` [fisetin, 3,7,3′,4′-Tetrahydroxyflavone] was run?
The value was “stimulate fat mobilization”.

Which fat accumulation [3] does the source give for `NC(=O)c1cccnc1` [nicotinamide, reference compound] here?
The fat accumulation was “concentration dependent increase in fat accumulation”.

How did the “fat mobilization (fat content of the worms)” value ([1]; 48 hours) turn out when `Oc1cc(O)cc(/C=C/c2ccc(O)c(O)c2)c1` [piceatannol, 3,5,3′,4′-Tetrahydroxy-trans-stilbene] was run?
The value was “stimulate fat mobilization”.

Which “fat mobilization (fat content of the worms)” value ([1]; 48 hours) does the source give for `O=c1c(O)c(-c2ccc(O)c(O)c2)oc2cc(O)cc(O)c12` [quercetin, 3,5,7,3′,4′-Pentahydroxyflavone] here?
The value was “stimulate fat mobilization”.

With `CN(CCOc1ccc(CC2SC(=O)NC2=O)cc1)c1ccccn1` (centres unmarked) [roziglitazone, reference compound] as the compound, how does the “radioactive glucose uptake / insulin sensitivity” value [4] read?
Its value is “increases the uptake of radioactive glucose”.
